Data as given in BindingDB's records for doi:10.1016/j.bmc.2007.07.016 (Waseda University, 2007).

Molecular target: T1, Ubiquitin carboxyl-terminal hydrolase isozyme L3 (Homo sapiens, UniProt P15374)
T1 sequence (P15374 whole entry): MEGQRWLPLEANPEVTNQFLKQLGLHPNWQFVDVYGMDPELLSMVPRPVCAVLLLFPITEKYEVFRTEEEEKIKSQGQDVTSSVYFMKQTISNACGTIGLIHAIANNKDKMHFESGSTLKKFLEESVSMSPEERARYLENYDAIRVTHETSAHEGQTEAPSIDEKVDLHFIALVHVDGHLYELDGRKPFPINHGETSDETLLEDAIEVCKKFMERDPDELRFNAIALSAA
Test: Enzyme Inhibition Assay
Settings: pH 7.8; 22 °C
Description: Enzyme reactions were carried out on Costar 96-well black assay plates. After the reaction, AMC fluorescence (excitation wavelength: 355 nm, emission wavelength: 460 nm) was subsequently measured 40 times every 3 s with a Wallac 1420 multi-label counter. Initial velocities (from 0 to 30 s) were used for IC50 determination, using GraphPad Prism 4 software.

| SMILES | IC50 [µM] |
| --- | --- |
| Nc1nc(CSc2nnc(-c3ccco3)n2-c2ccccc2)cs1 [4-({[5-(furan-2-yl)-4-phenyl-4H-1,2,4-triazol-3-yl]sulfanyl}methyl)-1,3-thiazol-2-amine] | > 387 |
| Cc1ccc(C(=O)C2C(=O)C(=O)N(Cc3cccnc3)C2c2ccc(F)cc2)o1 (stereo not drawn) [5-(4-fluorophenyl)-3-hydroxy-4-[(5-methylfuran-2-yl)carbonyl]-1-(pyridin-3-ylmethyl)-2,5-dihydro-1H-pyrrol-2-one] | 123 |
| COc1ccc(N(CC(=O)NC2CC2)S(=O)(=O)c2ccc(C)cc2)cc1 [N-cyclopropyl-2-[(4-methoxyphenyl)(4-methylbenzene)sulfonamido]acetamide] | > 334 |
| COc1cccc(N(CC(=O)NC2CCCC2)S(=O)(=O)c2ccccc2)c1 [2-[benzene(3-methoxyphenyl)sulfonamido]-N-cyclopentylacetamide] | > 386 |
| COc1ccc(C2C(C(=O)c3cccs3)C(=O)C(=O)N2c2nncs2)cc1 (stereo not drawn) | 154 |
| Cc1ccc(C(=O)C2C(=O)C(=O)N(Cc3ccccc3)C2c2cccnc2)o1 (stereo not drawn) [1-benzyl-3-hydroxy-4-[(5-methylfuran-2-yl)carbonyl]-5-(pyridin-3-yl)-2,5-dihydro-1H-pyrrol-2-one] | 103 |
| CCS(=O)(=O)Nc1cccc(C2=NN(C(C)=O)C(c3cccs3)C2)c1 (stereo not drawn) [N-{3-[1-acetyl-5-(thiophen-2-yl)-4,5-dihydro-1H-pyrazol-3-yl]phenyl}ethane-1-sulfonamide] | > 331 |
| COc1ccc(S(=O)(=O)N(CC(=O)NC2CC2)c2ccc(C)cc2)cc1 [N-cyclopropyl-2-[(4-methoxybenzene)(4-methylphenyl)sulfonamido]acetamide] | > 401 |
